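Dose response: 5 concentrations. Exposure: 48 h. Format: 96-well plates. Endpoint: linear interpolation; highest concentration if not reached. GI50 marks 50% less growth. TGI is the concentration that stops growth completely.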
Key:
Assay in all cases: NCI tumour cell line growth inhibition, 48 h
[1] = test system: K-562 leukemia
[2] = test system: COLO 205 colon
[3] = test system: UO-31 renal
[4] = test system: RXF 393 renal
[5] = test system: MOLT-4 leukemia
[6] = test system: HOP-62 NSCLC
[7] = test system: CCRF-CEM leukemia
[8] = test system: HS 578T breast
[9] = test system: IGROV1 ovarian
[10] = test system: RPMI-8226 leukemia
[11] = test system: ACHN renal
[12] = test system: NCI-H226 lung
[13] = test system: DU-145 prostate
[14] = test system: NCI-H522 lung
[15] = test system: MCF7 breast
[16] = test system: PC-3 prostate
[17] = test system: OVCAR-8 ovarian
[18] = test system: SNB-19 CNS
[19] = test system: HCT-116 colon
[20] = test system: OVCAR-3 ovarian
[21] = test system: KM12 colon
[22] = test system: EKVX NSCLC
[23] = test system: SK-OV-3 ovarian
[24] = test system: UACC-257 melanoma
[25] = test system: SK-MEL-5 melanoma
[26] = test system: T-47D breast
[27] = test system: BT-549 breast
[28] = test system: SF-539 CNS
[29] = test system: SK-MEL-2 melanoma
[30] = test system: CAKI-1 renal
[31] = test system: UACC-62 melanoma
[32] = test system: TK-10 renal
[33] = test system: A549 NSCLC
[34] = test system: OVCAR-4 ovarian
[35] = test system: NCI-H460 lung
[36] = test system: SF-295 CNS
[37] = test system: MALME-3M melanoma
[38] = test system: M14 melanoma
[39] = test system: SF-268 CNS
[40] = test system: SNB-75 CNS
[41] = test system: MDA-MB-435
[42] = test system: LOX IMVI melanoma
[43] = test system: HCT-15 colon
[44] = test system: MDA-MB-231 breast
[45] = test system: 786-0 renal
[46] = test system: HT29 colon
[47] = test system: SK-MEL-28 melanoma
[48] = test system: U251 CNS
[49] = test system: SW-620 colon
[50] = test system: SR leukemia

O=C(O)CN(CCN(CC(=O)O)CC(=O)O)CC(=O)O
GI50 [1]: > 100 µM
TGI [1]: > 100 µM
GI50 [2]: > 100 µM
TGI [2]: > 100 µM
GI50 [3]: > 100 µM
TGI [3]: > 100 µM
GI50 [4]: > 100 µM
TGI [4]: > 100 µM
GI50 [5]: > 100 µM
TGI [5]: > 100 µM
GI50 [6]: > 100 µM
TGI [6]: > 100 µM
GI50 [7]: > 100 µM
TGI [7]: > 100 µM
GI50 [8]: > 100 µM
TGI [8]: > 100 µM
GI50 [9]: > 100 µM
TGI [9]: > 100 µM
GI50 [10]: > 100 µM
TGI [10]: > 100 µM
GI50 [11]: > 100 µM
TGI [11]: > 100 µM
GI50 [12]: > 100 µM
TGI [12]: > 100 µM
GI50 [13]: > 100 µM
TGI [13]: > 100 µM
GI50 [14]: > 100 µM
TGI [14]: > 100 µM
GI50 [15]: > 100 µM
TGI [15]: > 100 µM
GI50 [16]: > 100 µM
TGI [16]: > 100 µM
GI50 [17]: > 100 µM
TGI [17]: > 100 µM
GI50 [18]: > 100 µM
TGI [18]: > 100 µM
GI50 [19]: > 100 µM
TGI [19]: > 100 µM
GI50 [20]: > 100 µM
TGI [20]: > 100 µM
GI50 [21]: > 100 µM
TGI [21]: > 100 µM
GI50 [22]: > 100 µM
TGI [22]: > 100 µM
GI50 [23]: > 100 µM
TGI [23]: > 100 µM
GI50 [24]: > 100 µM
TGI [24]: > 100 µM
GI50 [25]: > 100 µM
TGI [25]: > 100 µM
GI50 [26]: > 100 µM
TGI [26]: > 100 µM
GI50 [27]: > 100 µM
TGI [27]: > 100 µM
GI50 [28]: > 100 µM
TGI [28]: > 100 µM
GI50 [29]: > 100 µM
TGI [29]: > 100 µM
GI50 [30]: > 100 µM
TGI [30]: > 100 µM
GI50 [31]: > 100 µM
TGI [31]: > 100 µM
GI50 [32]: > 100 µM
TGI [32]: > 100 µM
GI50 [33]: > 100 µM
TGI [33]: > 100 µM
GI50 [34]: > 100 µM
TGI [34]: > 100 µM
GI50 [35]: > 100 µM
TGI [35]: > 100 µM
GI50 [36]: > 100 µM
TGI [36]: > 100 µM
GI50 [37]: > 100 µM
TGI [37]: > 100 µM
GI50 [38]: > 100 µM
TGI [38]: > 100 µM
GI50 [39]: > 100 µM
TGI [39]: > 100 µM
GI50 [40]: > 100 µM
TGI [40]: > 100 µM
GI50 [41]: > 100 µM
TGI [41]: > 100 µM
GI50 [42]: > 100 µM
TGI [42]: > 100 µM
GI50 [43]: > 100 µM
TGI [43]: > 100 µM
GI50 [44]: > 100 µM
TGI [44]: > 100 µM
GI50 [45]: > 100 µM
TGI [45]: > 100 µM
GI50 [46]: > 100 µM
TGI [46]: > 100 µM
GI50 [47]: > 100 µM
TGI [47]: > 100 µM
GI50 [48]: > 100 µM
TGI [48]: > 100 µM
GI50 [49]: > 100 µM
TGI [49]: > 100 µM

COc1ccc(O)c2c(=O)c3c(OC)cc4c(c3oc12)[C@@H]1C=CO[C@@H]1O4
GI50 [8]: 3.96 µM
TGI [8]: > 43 µM
GI50 [11]: 0.321 µM
TGI [11]: 5.64 µM
GI50 [13]: 3.03 µM
TGI [13]: > 34.9 µM
GI50 [50]: 0.0518 µM
GI50 [16]: > 21.4 µM
TGI [16]: > 100 µM
GI50 [26]: 0.475 µM
TGI [26]: 13.3 µM
GI50 [27]: 4.77 µM
TGI [27]: 36.5 µM
GI50 [32]: 4.51 µM
TGI [32]: 34.9 µM
GI50 [38]: > 21.4 µM
TGI [38]: > 100 µM
GI50 [41]: 3.3 µM
TGI [41]: > 100 µM
GI50 [44]: 7.9 µM
TGI [44]: > 100 µM
GI50 [45]: 9.87 µM
TGI [45]: > 60.5 µM

From PubChem BioAssay (NCI)
